Data taken from patent publication US12624044B2, “SMARCA degraders and uses thereof” (Kymera Therapeutics, Inc., priority 2019, dated 2026).

How the values were obtained:
Type in all cases: cell-based
SMARCA2 [1] = target: T1, SMARCA2 (Homo sapiens, UniProt P51531); assay: MSD SMARCA2 degradation in NCI-H1299 cell line (24 h); set-up: HC: NCI-H1299 cells treated with DMSO; host or cells: NCI-H1299; conditions: for Dmax: NCI-H1299, NCI-H1299 cells; for DC50: NCI-H1299 cells, read-out: SMARCA2 MSD H1299 degradation 24 h: External Abs-DC50
Procedure, shortened: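 NCI-H1299 cells treated 24 h with a 3-fold, 9-point compound dilution series, then lysed in RIPA with protease inhibitor. SMARCA2 in lysate-coated MSD plates detected with rabbit anti-SMARCA2 (0.3 ug/ml) and SULFO-TAG secondary. Relative SMARCA2 level normalized between DMSO-treated H1299 cells and SMARCA2-negative A2780 cells; Dmax % binned A–D.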

SMARCA4 = target: T2, SMARCA4 (Homo sapiens, UniProt P51532); assay: SMARCA4 Western blot MV4-11 degradation; conditions: 24 h; for Dmax: MV4-11, MV4-11 cells, read-out: SMARCA4 WB MV411 degradation 24 h: Average Dmax %; for DC50: MV4-11 cells, read-out: SMARCA4 WB MV411 degradation 24 h: Average external-Abs DC50
T2 construct: SMARCA2 and SMARCA4 protein degradation in MV4-11 cells; endogenous in cells; host or cells: MV4-11
Procedure: Cells were seeded into 6-well plates (MV4-11: 4×10^6 cells/well/1 ml) and 1 ml of 2× compound solution was added into the well to make the final concentration and the plates were mixed well and incubated for 24 hours (No cytotoxicity was observed). The cell were collected with media and spun at 3000 rpm for 5 minutes. The supernatant was aspirated and the well and the cells were washed with cold PBS once and combined for centrifugation again; the supernatant aspirated again. 200 ul pre-chilled RIPAlysis buffer (Boston BioProducts BP-115D) with protease/phosphatase inhibitor (Roche 05892791001/Roche 04906837001) was directly added into the tube to lyze the cells for 20 minutes on ice. The cell lysate were collected into EP tubes and spun at 13000 rpm for 20 minutes and 72 ul supernatant was transferred to a fresh EP tube containing 18 ul of 5× loading buffer (Beyotime Bio P0015) to make the loading samples. The samples were heated to 100° C. for 10 minutes and cooled to RT and microcentrifuged. 20 ul of samples were loaded onto SDS-PAGE gel (Novex, WG1402BOX) and the gel was run at 80 V for 20 minutes and 120 V for 1.5 hours. The samples were electrotransfer to a NC membrane using wet-transfer method with 250 mA for 2.5 hours. The membrane was blocked with LICOR blocking buffer (LI-COR, 927-50000) for 1 hour. The membrane was washed three times with TBST (CST #9997S), 5 minutes each. Incubation was performed with primary antibody prepared in blocking buffer with 0.1% Tween-20 (Solarbio, P8220) at 4° C. overnight (Anti-SMARCA2/BRM antibody (ab15597) 1:500; Anti-BRG1 antibody [EPR3912] (ab108318) 1:1000; Rabbit anti-Baf180 antibody [EPR15860] (Abcam, ab196022) 1:1000; mouse anti-beta-Actin (8H10D10) (CST #3700) 1:10000). The membrane was washed three times with TBST, 5 minutes each. Incubation with secondary antibody was performed for 1 hour at RT (anti-rabbit IgG (Licor, 926-32211) 1:5000; anti-mouse IgG (LI-COR, 926-68070) 1:5000). The membrane was washed three times with TBST, 5 minutes each and lastly the LiCOR was read.
The letter codes for the percentage of SMARCA degradation after 24 hours (Dmax %) include: A (>90% degradation), B (>70-90% degradation), C (50-70% degradation), and D (<50% degradation).

SMARCA2 [2] = target: T1, SMARCA2; assay: MSD SMARCA2 degradation in A549 cell line; conditions: 24 h; for Dmax: A549, A549 cells; for DC50: A549 cells, read-out: SMARCA2 MSD A549 degradation 24 h: Average external-Abs DC50
Procedure, shortened: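 A549 cells treated 24 h with compound at final 0.152-1000 nM (3-fold series, DMSO control). Lysates analyzed by MSD immunoassay using anti-SMARCA2/BRM detection and SULFO-TAG secondary antibodies; maximal degradation (Dmax %) reported as letter bins.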

T2 sequence (P51532 whole entry): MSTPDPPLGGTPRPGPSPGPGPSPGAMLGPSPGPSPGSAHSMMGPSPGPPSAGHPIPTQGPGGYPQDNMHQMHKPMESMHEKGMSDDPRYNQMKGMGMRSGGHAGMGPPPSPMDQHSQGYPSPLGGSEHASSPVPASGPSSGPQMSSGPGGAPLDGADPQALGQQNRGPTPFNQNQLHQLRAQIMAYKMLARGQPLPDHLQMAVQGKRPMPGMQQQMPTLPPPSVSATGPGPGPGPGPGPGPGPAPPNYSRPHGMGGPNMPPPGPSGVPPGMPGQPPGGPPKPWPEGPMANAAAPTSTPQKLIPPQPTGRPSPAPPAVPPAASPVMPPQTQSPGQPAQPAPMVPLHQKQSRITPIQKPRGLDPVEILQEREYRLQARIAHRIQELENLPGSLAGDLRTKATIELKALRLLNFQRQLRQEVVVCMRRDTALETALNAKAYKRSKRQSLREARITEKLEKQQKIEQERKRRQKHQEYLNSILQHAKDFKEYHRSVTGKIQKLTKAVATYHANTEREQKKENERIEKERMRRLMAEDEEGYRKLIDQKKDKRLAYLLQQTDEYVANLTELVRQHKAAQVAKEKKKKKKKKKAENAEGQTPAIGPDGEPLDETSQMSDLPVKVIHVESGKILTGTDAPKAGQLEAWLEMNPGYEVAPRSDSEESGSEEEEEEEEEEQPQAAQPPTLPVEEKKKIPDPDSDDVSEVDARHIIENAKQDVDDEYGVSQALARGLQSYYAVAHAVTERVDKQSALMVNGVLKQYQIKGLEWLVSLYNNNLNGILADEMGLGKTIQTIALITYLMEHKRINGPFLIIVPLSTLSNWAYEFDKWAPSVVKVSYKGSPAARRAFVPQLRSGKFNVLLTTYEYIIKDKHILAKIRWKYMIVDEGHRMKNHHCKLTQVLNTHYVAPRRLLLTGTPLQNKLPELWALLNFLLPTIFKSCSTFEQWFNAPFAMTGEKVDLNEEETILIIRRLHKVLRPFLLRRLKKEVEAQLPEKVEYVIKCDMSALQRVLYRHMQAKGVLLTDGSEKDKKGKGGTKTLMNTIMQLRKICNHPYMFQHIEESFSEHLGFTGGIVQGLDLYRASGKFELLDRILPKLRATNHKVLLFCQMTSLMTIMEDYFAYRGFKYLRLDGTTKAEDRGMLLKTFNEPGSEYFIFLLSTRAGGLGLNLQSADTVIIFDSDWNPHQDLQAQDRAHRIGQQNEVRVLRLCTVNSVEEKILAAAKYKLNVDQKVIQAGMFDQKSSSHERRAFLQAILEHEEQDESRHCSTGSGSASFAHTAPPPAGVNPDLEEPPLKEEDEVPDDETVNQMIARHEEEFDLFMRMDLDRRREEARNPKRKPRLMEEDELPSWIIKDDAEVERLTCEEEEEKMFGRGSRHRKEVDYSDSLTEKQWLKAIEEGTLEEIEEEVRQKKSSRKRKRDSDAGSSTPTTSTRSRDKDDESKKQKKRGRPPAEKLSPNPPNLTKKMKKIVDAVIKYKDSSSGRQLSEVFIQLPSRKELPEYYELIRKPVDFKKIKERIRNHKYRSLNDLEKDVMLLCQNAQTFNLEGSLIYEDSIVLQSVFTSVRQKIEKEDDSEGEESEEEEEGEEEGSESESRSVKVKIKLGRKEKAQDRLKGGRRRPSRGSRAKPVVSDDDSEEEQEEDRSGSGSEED
T1 sequence (P51531 whole entry): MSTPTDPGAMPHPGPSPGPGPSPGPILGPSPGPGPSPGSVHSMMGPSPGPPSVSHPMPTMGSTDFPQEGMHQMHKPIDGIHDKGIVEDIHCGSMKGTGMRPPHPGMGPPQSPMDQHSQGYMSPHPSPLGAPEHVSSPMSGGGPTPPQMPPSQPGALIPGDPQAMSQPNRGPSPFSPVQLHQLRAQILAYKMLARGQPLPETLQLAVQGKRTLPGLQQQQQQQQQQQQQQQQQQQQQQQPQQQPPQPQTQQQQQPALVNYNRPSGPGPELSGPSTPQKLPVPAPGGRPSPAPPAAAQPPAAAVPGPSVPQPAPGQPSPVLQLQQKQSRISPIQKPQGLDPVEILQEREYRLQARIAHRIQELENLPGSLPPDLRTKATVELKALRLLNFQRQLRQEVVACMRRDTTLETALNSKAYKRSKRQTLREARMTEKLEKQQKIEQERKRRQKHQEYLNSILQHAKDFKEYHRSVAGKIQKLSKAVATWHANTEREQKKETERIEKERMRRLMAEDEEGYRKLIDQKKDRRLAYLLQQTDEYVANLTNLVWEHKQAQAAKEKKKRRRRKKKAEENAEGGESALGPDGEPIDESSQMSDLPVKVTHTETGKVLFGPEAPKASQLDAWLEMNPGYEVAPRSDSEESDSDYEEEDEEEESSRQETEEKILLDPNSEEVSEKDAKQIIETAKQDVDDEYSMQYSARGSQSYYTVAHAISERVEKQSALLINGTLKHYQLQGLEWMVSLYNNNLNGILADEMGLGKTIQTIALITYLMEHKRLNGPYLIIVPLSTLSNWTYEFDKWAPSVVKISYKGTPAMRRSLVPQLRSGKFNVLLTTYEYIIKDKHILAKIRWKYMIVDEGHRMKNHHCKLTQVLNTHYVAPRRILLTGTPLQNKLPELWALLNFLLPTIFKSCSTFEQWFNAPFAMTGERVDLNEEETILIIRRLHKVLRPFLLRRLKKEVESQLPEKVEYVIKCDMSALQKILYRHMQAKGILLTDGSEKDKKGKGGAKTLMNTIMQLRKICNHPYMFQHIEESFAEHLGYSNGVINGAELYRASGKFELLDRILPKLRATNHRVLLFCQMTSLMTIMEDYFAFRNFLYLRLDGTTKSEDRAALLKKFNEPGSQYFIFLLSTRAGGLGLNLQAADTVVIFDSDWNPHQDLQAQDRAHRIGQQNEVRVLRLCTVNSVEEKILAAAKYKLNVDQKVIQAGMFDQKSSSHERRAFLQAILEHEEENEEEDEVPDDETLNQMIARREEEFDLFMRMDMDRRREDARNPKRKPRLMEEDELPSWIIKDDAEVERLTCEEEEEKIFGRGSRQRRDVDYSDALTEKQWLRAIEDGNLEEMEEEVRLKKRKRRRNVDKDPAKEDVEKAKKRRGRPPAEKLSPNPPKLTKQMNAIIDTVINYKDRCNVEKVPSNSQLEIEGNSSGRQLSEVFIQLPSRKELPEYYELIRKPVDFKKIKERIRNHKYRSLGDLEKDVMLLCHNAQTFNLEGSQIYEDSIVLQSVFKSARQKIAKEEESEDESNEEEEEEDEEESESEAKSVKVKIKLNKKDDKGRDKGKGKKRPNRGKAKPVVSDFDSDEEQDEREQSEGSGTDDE

Compound | Dmax (SMARCA2 [1]) | DC50 (SMARCA2 [1]) | Dmax (SMARCA4) | DC50 (SMARCA4) | Dmax (SMARCA2 [2]) | DC50 (SMARCA2 [2])
CN(Cc1cnc(N2C3CCC2CN(c2cc(-c4ccccc4O)nnc2N)C3)nc1)CC1CCN(c2ccc3c(c2)n(C)c(=O)n3C2CCC(=O)NC2=O)CC1 (stereo not drawn) [I-282, 3-(5-(4-((((2-(3-(3-amino-6-(2-hydroxyphenyl)pyridazin-4-yl)-3,8-diazabicyclo[3.2.1]octan-8-yl)pyrimidin-5-yl)methyl)(methyl)amino)methyl)piperidin-1-yl)-3-methyl-2-oxo-2,3-dihydro-1H-benzo[d]imidazol-1-yl)piperidine-2,6-dione] | > 90% | < 100 nM | > 90% | < 100 nM |  | 
CN(CCCCCc1cnc(N2C3CCC2CN(c2cc(-c4ccccc4O)nnc2N)C3)nc1)Cc1ccc2c(c1)n(C)c(=O)n2C1CCC(=O)NC1=O (stereo not drawn) [I-283] | > 90% | < 100 nM | > 90% | < 100 nM |  | 
Cn1c(=O)n(C2CCC(=O)NC2=O)c2ccc(CCC(=O)N3CCC(c4cnc(N5C6CCC5CN(c5cc(-c7ccccc7O)nnc5N)C6)nc4)CC3)cc21 (stereo not drawn) [I-286] | 70 to 90% | 100 to 500 nM | > 90% | < 100 nM |  | 
Cn1c(=O)n(C2CCC(=O)NC2=O)c2ccc(CCCN3CCC(c4cnc(N5CCN(c6cc(-c7ccccc7O)nnc6N)CC5)nc4)CC3)cc21 (stereo not drawn) [I-288] | > 90% | < 100 nM | > 90% | < 100 nM |  | 
Cn1c(=O)n(C2CCC(=O)NC2=O)c2ccc(CCCN3CCCC(c4cnc(N5C6CCC5CN(c5cc(-c7ccccc7O)nnc5N)C6)nc4)C3)cc21 (stereo not drawn) [I-289] | 70 to 90% | < 100 nM | 50 to 70% | < 100 nM |  | 
Cn1c(=O)n(C2CCC(=O)NC2=O)c2cccc(CCCN3CCCC(c4cnc(N5C6CCC5CN(c5cc(-c7ccccc7O)nnc5N)C6)nc4)C3)c21 (stereo not drawn) [I-292] | > 90% | < 100 nM | > 90% | < 100 nM |  | 
Cn1c(=O)n(C2CCC(=O)NC2=O)c2ccc(CCN3CCN(C(=O)c4cnc(N5C6CCC5CN(c5cc(-c7ccccc7O)nnc5N)C6)nc4)CC3)cc21 (stereo not drawn) [I-293, 3-(5-(2-(4-(2-(3-(3-amino-6-(2-hydroxyphenyl)pyridazin-4-yl)-3,8-diazabicyclo[3.2.1]octan-8-yl)pyrimidine-5-carbonyl)piperazin-1-yl)ethyl)-3-methyl-2-oxo-2,3-dihydro-1H-benzo[d]imidazol-1-yl)piperidine-2,6-dione] | > 90% | < 100 nM | > 90% | < 100 nM |  | 
Cc1ncsc1-c1ccc(CNC(=O)[C@@H]2C[C@@H](O)CN2C(=O)[C@@H](NC(=O)CN2CCC(c3ccc(C#Cc4cc(NC(=O)Nc5cc(F)ncc5CO)ccn4)cc3)CC2)C(C)(C)C)cc1 [I-500, (2S,4R)-1-((S)-2-(2-(4-(4-((4-(3-(2-fluoro-5-(hydroxymethyl)pyridin-4-yl)ureido)pyridin-2-yl)ethynyl)phenyl)piperidin-1-yl)acetamido)-3,3-dimethylbutanoyl)-4-hydroxy-N-(4-(4-methylthiazol-5-yl)benzyl)pyrrolidine-2-carboxamide] |  |  |  |  | < 50% | > 1000 nM
Cc1ncsc1-c1ccc(CNC(=O)[C@@H]2C[C@@H](O)CN2C(=O)[C@@H](NC(=O)CCCN2CCC(c3ccc(C#Cc4cc(NC(=O)Nc5cc(F)ncc5CO)ccn4)cc3)CC2)C(C)(C)C)cc1 [I-501] |  |  |  |  | < 50% | > 1000 nM
Cc1ncsc1-c1ccc(CNC(=O)[C@@H]2C[C@@H](O)CN2C(=O)[C@@H](NC(=O)N2CCC3(CCC(c4cnc(N5C6CCC5CN(c5cc(-c7ccccc7O)nnc5N)C6)nc4)CC3)CC2)C(C)(C)C)cc1 [I-510] |  |  |  |  | > 90% | 100 to 500 nM
Cc1ncsc1-c1ccc(CNC(=O)[C@@H]2C[C@@H](O)CN2C(=O)[C@@H](NC(=O)C2(F)CC2)C2CCC(N(C)CCCC#Cc3cnc(N4C5CCC4CN(c4cc(-c6ccccc6O)nnc4N)C5)nc3)CC2)cc1 (stereo partly drawn) [I-517] |  |  |  |  | 50 to 70% | 501 to 1000 nM
Cc1ncsc1-c1ccc(CNC(=O)[C@@H]2C[C@@H](O)CN2C(=O)C(NC(=O)C2(F)CC2)C2CCC(N(C)CCCCCc3cnc(N4C5CCC4CN(c4cc(-c6ccccc6O)nnc4N)C5)nc3)CC2)cc1 (stereo partly drawn) [I-519] |  |  |  |  | < 50% | > 1000 nM
Cc1ncsc1-c1ccc(CNC(=O)[C@@H]2C[C@@H](O)CN2C(=O)C(NC(=O)C2(F)CC2)C2CCC(N(C)CCCCCCCc3cnc(N4C5CCC4CN(c4cc(-c6ccccc6O)nnc4N)C5)nc3)CC2)cc1 (stereo partly drawn) [I-520, (2S,4R)-1-[2-[4-[7-[2-[3-[3-amino-6-(2-hydroxyphenyl)pyridazin-4-yl]-3,8-diazabicyclo[3.2.1]octan-8-yl]pyrimidin-5-yl]heptyl-methyl-amino]cyclohexyl]-2-[(1-fluorocyclopropanecarbonyl)amino]acetyl]-4-hydroxy-N-[[4-(4-methylthiazol-5-yl)phenyl]methyl]pyrrolidine-2-carboxamide] |  |  |  |  | < 50% | > 1000 nM
COCC(=O)N1CCCc2cc(OCC(=O)NCCCN3CCC(c4cnc(N5C6CCC5CN(c5cc(-c7ccccc7O)nnc5N)C6)nc4)CC3)ccc21 [I-526] |  |  |  |  | < 50% | > 1000 nM
COc1ccccc1-c1cc(N2CC3CCC(C2)N3c2ncc(C3CCN(CCCNC(=O)COc4ccc5c(c4)CCCN5C(=O)CCl)CC3)cn2)c(N)nn1 [I-527] |  |  |  |  | < 50% | > 1000 nM
Nc1nnc(-c2ccccc2O)cc1N1CC2CCC(C1)N2c1ncc(C2CCN(CCCCNC(=O)COc3ccc4c(c3)CCCN4C(=O)CCl)CC2)cn1 [I-528] |  |  |  |  | < 50% | > 1000 nM
Nc1nnc(-c2ccccc2O)cc1N1CC2CCC(C1)N2c1ncc(C2CCN(CCCCCCNC(=O)COc3ccc4c(c3)CCCN4C(=O)CCl)CC2)cn1 [I-529] |  |  |  |  | < 50% | > 1000 nM
Nc1nnc(-c2ccccc2O)cc1N1CC2CCC(C1)N2c1ncc(C2CCN(CCCCOc3ccc(Oc4ccc(N(Cc5ccccc5)C(=O)CCl)cc4)cc3)CC2)cn1 [I-530] |  |  |  |  | < 50% | > 1000 nM
Nc1nnc(-c2ccccc2O)cc1N1CC2CCC(C1)N2c1ncc(C2CCN(CCCCCCOc3ccc(Oc4ccc(N(Cc5ccccc5)C(=O)CCl)cc4)cc3)CC2)cn1 [I-531] |  |  |  |  | < 50% | > 1000 nM
Nc1nnc(-c2ccccc2O)cc1N1CC2CCC(C1)N2c1ncc(C2CCN(CCCCCCCCOc3ccc(Oc4ccc(N(Cc5ccccc5)C(=O)CCl)cc4)cc3)CC2)cn1 [I-532] |  |  |  |  | 50 to 70% | > 1000 nM
Nc1nnc(-c2ccccc2O)cc1N1CC2CCC(C1)N2c1ncc(C2CCN(CCCCCCCCCCOc3ccc(Oc4ccc(N(Cc5ccccc5)C(=O)CCl)cc4)cc3)CC2)cn1 [I-533, N-(4-(4-((10-(4-(2-(3-(3-amino-6-(2-hydroxyphenyl)pyridazin-4-yl)-3,8-diazabicyclo[3.2.1]octan-8-yl)pyrimidin-5-yl)piperidin-1-yl)decyl)oxy)phenoxy)phenyl)-N-benzyl-2-chloroacetamide] |  |  |  |  | < 50% | > 1000 nM
CC(C)(C)[C@H](NC(=O)[C@H]1CC2(C1)C[C@H](N1CCC(c3cnc(N4C5CCC4CN(c4cc(-c6ccccc6O)nnc4N)C5)nc3)CC1)C2)C(=O)N1C[C@H](O)C[C@H]1C(=O)NOc1ccc(-c2ccccc2F)cc1 (stereo partly drawn) [I-538, (2S,4R)-1-[(2S)-2-[[2-[4-[2-[3-[3-amino-6-(2-hydroxyphenyl)pyridazin-4-yl]-3,8-diazabicyclo[3.2.1]octan-8-yl]pyrimidin-5-yl]-1-piperidyl]spiro[3.3]heptane-6-carbonyl]amino]-3,3-dimethyl-butanoyl]-N-[4-(2-fluorophenyl)phenoxy]-4-hydroxy-pyrrolidine-2-carboxamide] |  |  |  |  |  | > 1000 nM
